Experimental data as given in patent EP4238972A1, “SUBSTITUTED 1,2,4-THIADIAZOLYL PICOLINAMIDES, SALTS OR N-OXIDES THEREOF AND THEIR USE AS HERBICIDALLY ACTIVE SUBSTANCES” (Bayer AG, priority 2022, dated 2023).

How the values were obtained:
Format in all cases: in vivo
Amaranthus retroflexus [1] = assay: Herbicidal post-emergence action; settings: visual assessment after ca. 3 weeks vs untreated controls
Source text: (§1) Seeds of mono- and dicotyledonous weed plants were sown in plastic pots (double sowings with one species of mono- and one species of dicotyledonous weed plants per pot), in sandy loam, covered with soil and grown under controlled growth conditions. 2 to 3 weeks after sowing, the test plants were sprayed in the single-leaf stage. The compounds according to the invention, formulated in the form of wettable powders (WP) or as emulsifiable concentrates (EC), were sprayed onto the green plant parts as an aqueous suspension or as an emulsion, with the addition of 0.5% of an additive, at an application rate of 600 litres of water per hectare (converted). The test plants were placed in the greenhouse for ca. 3 weeks under optimum growth conditions, and then the effect of the preparations is assessed visually in comparison with untreated controls (herbicidal effect in percent (%): 100% effect = plants have died, 0% effect = as control plants). Seeds of mono- and dicotyledonous weed plants were sown in plastic pots (double sowings with one species of mono- and one species of dicotyledonous weed plants per pot), in sandy loam, covered with soil and grown under controlled growth conditions. 2 to 3 weeks after sowing, the test plants were sprayed in the single-leaf stage. The compounds according to the invention, formulated in the form of wettable powders (WP) or as emulsifiable concentrates (EC), are sprayed onto the green plant parts as an aqueous suspension or as an emulsion, with the addition of 0.5% of an additive, at an application rate of 600 litres of water per hectare (converted). The test plants were placed in the greenhouse for ca. 3 weeks under optimum growth conditions, and then the effect of the preparations is assessed visually in comparison with untreated controls (herbicidal effect in percent (%): 100% effect = plants have died, 0% effect = as control plants).

Kochia scoparia = assay: Herbicidal post-emergence action; settings: visual assessment after ca. 3 weeks vs untreated controls
Source text: as §1

Poa annua [2] = assay: Herbicidal post-emergence action; settings: visual assessment after ca. 3 weeks vs untreated controls
Source text: as §1

Amaranthus retroflexus [3] = assay: Herbicidal pre-emergence action; settings: visual grading after ca. 3 weeks vs untreated controls
Source text: (§2) Seeds of mono- and dicotyledonous weed plants were sown in plastic pots (double sowings with one species of mono- and one species of dicotyledonous weed plants per pot), in sandy loam, and covered with soil. The compounds according to the invention, formulated in the form of wettable powders (WP) or as emulsifiable concentrates (EC), were applied to the surface of the covering soil as an aqueous suspension or as an emulsion, with the addition of 0.5% of an additive, at an application rate of 600 litres of water per hectare (converted). Following treatment, the pots were placed in a greenhouse and kept under optimum growth conditions for the test plants. The visual grading of the damage to the test plants is carried out after ca. 3 weeks in comparison to untreated controls (herbicidal effect in percent (%): 100% effect = plants have died, 0% effect = as control plants). Seeds of mono- and dicotyledonous weed plants were sown in plastic pots (double sowings with one species of mono- and one species of dicotyledonous weed plants per pot), in sandy loam, and covered with soil. The compounds according to the invention, formulated in the form of wettable powders (WP) or as emulsifiable concentrates (EC), were applied to the surface of the covering soil as an aqueous suspension or as an emulsion, with the addition of 0.5% of an additive, at an application rate of 600 litres of water per hectare (converted). Following treatment, the pots were placed in a greenhouse and kept under optimum growth conditions for the test plants. The visual grading of the damage to the test plants is carried out after ca. 3 weeks in comparison to untreated controls (herbicidal effect in percent (%): 100% effect = plants have died, 0% effect = as control plants).

Stellaria media [4] = assay: Herbicidal pre-emergence action; settings: visual grading after ca. 3 weeks vs untreated controls
Source text: as §2

Lolium rigidum [5] = assay: Herbicidal pre-emergence action; settings: visual grading after ca. 3 weeks vs untreated controls
Source text: as §2

Poa annua [6] = assay: Herbicidal pre-emergence action; settings: visual grading after ca. 3 weeks vs untreated controls
Source text: as §2

Stellaria media [7] = assay: Herbicidal post-emergence action; settings: 1280 g/ha, visual assessment after ca. 3 weeks vs untreated controls
Source text: (§3) Seeds of mono- and dicotyledonous weed plants were sown in plastic pots (double sowings with one species of mono- and one species of dicotyledonous weed plants per pot), in sandy loam, covered with soil and grown under controlled growth conditions. 2 to 3 weeks after sowing, the test plants were sprayed in the single-leaf stage. The compounds according to the invention, formulated in the form of wettable powders (WP) or as emulsifiable concentrates (EC), were sprayed onto the green plant parts as an aqueous suspension or as an emulsion, with the addition of 0.5% of an additive, at an application rate of 600 litres of water per hectare (converted). The test plants were placed in the greenhouse for ca. 3 weeks under optimum growth conditions, and then the effect of the preparations is assessed visually in comparison with untreated controls (herbicidal effect in percent (%): 100% effect = plants have died, 0% effect = as control plants).

Veronica persica [8] = assay: Herbicidal post-emergence action; settings: visual assessment after ca. 3 weeks vs untreated controls
Source text: as §1

Setaria viridis [9] = assay: Herbicidal post-emergence action; settings: visual assessment after ca. 3 weeks vs untreated controls
Source text: as §1

Matricaria inodora [10] = assay: Herbicidal pre-emergence action; settings: visual grading after ca. 3 weeks vs untreated controls
Source text: as §2

Lolium rigidum [11] = assay: Herbicidal post-emergence action; settings: 1280 g/ha, visual assessment after ca. 3 weeks vs untreated controls
Source text: as §3

Alopecurus myosuroides = assay: Herbicidal post-emergence action; settings: 1280 g/ha, visual assessment after ca. 3 weeks vs untreated controls
Source text: as §3

Matricaria inodora [12] = assay: Herbicidal post-emergence action; settings: 1280 g/ha, visual assessment after ca. 3 weeks vs untreated controls
Source text: as §3

Setaria viridis [13] = assay: Herbicidal pre-emergence action; settings: 1280 g/ha, visual grading after ca. 3 weeks vs untreated controls
Source text: (§4) Seeds of mono- and dicotyledonous weed plants were sown in plastic pots (double sowings with one species of mono- and one species of dicotyledonous weed plants per pot), in sandy loam, and covered with soil. The compounds according to the invention, formulated in the form of wettable powders (WP) or as emulsifiable concentrates (EC), were applied to the surface of the covering soil as an aqueous suspension or as an emulsion, with the addition of 0.5% of an additive, at an application rate of 600 litres of water per hectare (converted). Following treatment, the pots were placed in a greenhouse and kept under optimum growth conditions for the test plants. The visual grading of the damage to the test plants is carried out after ca. 3 weeks in comparison to untreated controls (herbicidal effect in percent (%): 100% effect = plants have died, 0% effect = as control plants).

Echinochloa crus-galli [14] = assay: Herbicidal pre-emergence action; settings: 1280 g/ha, visual grading after ca. 3 weeks vs untreated controls
Source text: as §4

Veronica persica [15] = assay: Herbicidal pre-emergence action; settings: 1280 g/ha, visual grading after ca. 3 weeks vs untreated controls
Source text: as §4

Echinochloa crus-galli [16] = assay: Herbicidal post-emergence action; settings: 1280 g/ha, visual assessment after ca. 3 weeks vs untreated controls
Source text: as §3

Row | Structure (SMILES) | herbicidal effect AMARE (Amaranthus retroflexus [1]; 1280 g/ha) | herbicidal effect KCHSC (Kochia scoparia; 320 g/ha) | herbicidal effect KCHSC (Kochia scoparia; 1280 g/ha) | herbicidal effect POAAN (Poa annua [2]; 320 g/ha) | herbicidal effect POAAN (Poa annua [2]; 1280 g/ha) | herbicidal effect AMARE (Amaranthus retroflexus [3]; 1280 g/ha) | herbicidal effect STEME (Stellaria media [4]; 1280 g/ha) | herbicidal effect LOLRI (Lolium rigidum [5]; 1280 g/ha) | herbicidal effect POAAN (Poa annua [6]; 320 g/ha) | herbicidal effect POAAN (Poa annua [6]; 1280 g/ha) | herbicidal effect STEME (Stellaria media [7]) | herbicidal effect AMARE (Amaranthus retroflexus [1]; 320 g/ha) | herbicidal effect VERPE (Veronica persica [8]; 320 g/ha) | herbicidal effect VERPE (Veronica persica [8]; 1280 g/ha) | herbicidal effect SETVI (Setaria viridis [9]; 1280 g/ha) | herbicidal effect MATIN (Matricaria inodora [10]; 1280 g/ha) | herbicidal effect ECHCG (Echinochloa crus-galli [14]) | other results
1 | O=C(Nc1ncns1)c1nc(Cl)ccc1OC(F)(F)F [Example I-013, 6-chloro-N-(1,2,4-thiadiazol-5-yl)-3-(trifluoromethoxy)pyridine-2-carboxamide] | 100% | 90% | 100% | 90% | 100% | 100% | 90% | 90% | 100% | 100% | 90% |  |  |  |  |  |  | herbicidal effect AMARE (Amaranthus retroflexus [3]; 320 g/ha): 90%
2 | O=C(Nc1nc(Cl)ns1)c1nc(F)ccc1Br [Example I-017, 3-bromo-N-(3-chloro-1,2,4-thiadiazol-5-yl)-6-fluoro-pyridine-2-carboxamide] | 90% | 90% | 90% | 90% | 90% | 100% | 90% | 90% | 90% | 90% | 90% | 90% | 90% | 90% | 90% | 100% | 90% | herbicidal effect SETVI (Setaria viridis [9]; 320 g/ha): 90%; herbicidal effect STEME (Stellaria media [4]; 320 g/ha): 90%; herbicidal effect LOLRI (Lolium rigidum [5]; 320 g/ha): 90%; herbicidal effect MATIN (Matricaria inodora [10]; 320 g/ha): 100%; herbicidal effect LOLRI (Lolium rigidum [11]): 90%; herbicidal effect ALOMY (Alopecurus myosuroides): 90%; herbicidal effect MATIN (Matricaria inodora [12]): 90%; herbicidal effect SETVI (Setaria viridis [13]): 100%
3 | O=C(Nc1ncns1)c1ncc(Cl)cc1C(F)(F)F [Example I-036, 5-chloro-N-(1,2,4-thiadiazol-5-yl)-3-(trifluoromethyl)pyridine-2-carboxamide] | 90% |  |  |  |  | 90% |  |  |  |  |  |  |  | 90% |  |  |  | herbicidal effect VERPE (Veronica persica [15]): 90%
4 | O=C(Nc1ncns1)c1nc(Cl)ccc1Br [Example I-039, 3-bromo-6-chloro-N-(1,2,4-thiadiazol-5-yl)pyridine-2-carboxamide] | 100% |  |  | 90% | 90% | 100% | 90% |  |  | 90% | 90% | 100% | 90% | 100% | 90% | 100% | 90% | herbicidal effect ECHCG (Echinochloa crus-galli [16]): 90%
